Reference: patent publication US20250177285A1, “BANANA STEM SAP COMPOSITIONS AND METHODS OF USE THEREOF” (Tano Pharmaceuticals Inc., priority 2023, published 2025)
Marks after values point to notes of the source that are not given here. Residues, ends and D or L forms follow the SMILES beside them.

Tests used:
elastase = target: T1, elastase (Sus scrofa, UniProt P00772); assay: Elastase activity assay; assay type: biochemical, human
T1 construct: purchased Promega V1891
Protocol: (§1) Test Materials. Test materials (Table 8) were stored at +4° C. and were diluted in distilled sterile water immediately before testing. All experimental conditions were tested in biological triplicates.
Elastase activity assay. The reaction was initiated by adding 10 μl of 20 μg/ml elastase enzyme (Promega, cat. #V1891, lot #409147) to the assay mixture [10 mM Tris-HCl pH 7.5+/−0.5, 1 mg/ml elastase substrate VIII (Suc-Ala-Ala-Ala-pNA)] containing different experimental conditions, and the reaction kinetics were monitored at room temperature by measuring absorbance at 405 nm in the SpectraMax i3x microplate reader. Sterile distilled water was the negative, and EI III (Calbiochem cat. #324745) was the positive control. […]. Colorimetric readings were adjusted by subtracting the absorbance in wells containing the same experimental conditions but without elastase and were expressed as % of water control.
(§2) Statistical analysis. Statistical significance threshold was established as minimum 20% modulation and p value <0.05 as determined by two-tailed Student test.

[1] = system: type IV collagen output by normal human neonatal dermal fibroblasts; assay: Type IV collagen output, ELISA of conditioned medium; assay type: cell-based; conditions: for effect on type IV collagen (in words): tested range
Protocol: (§3) Test materials. Test materials (Table 2) were stored at +4° C. and were diluted in distilled sterile water immediately before testing. Cells & experimental procedures. Normal dermal human neonatal dermal fibroblasts (ScienCell; […] The next day (Day 1), test materials, reference substances [MAP (100 μg/ml), MAP (50 μg/ml) and niacinamide (400 μg/ml, 250 μg/ml and 80 μg/ml, based on PMC7950568 and PMC8622652)] and negative control (H2O) were added, and cell culture was pursued for three additional days, afterward the cell culture conditioned medium was used for type I & IV collagen quantification, while cells were formalin-fixed and type III collagen was measured by direct ELISA. The effect of the test articles on cell numbers was determined using the sulforhodamine B method (Table 3). MAP: magnesium ascorbyl phosphate. All colorimetric measurements were acquired using multi-mode SpectraMax i3x platform (Molecular Devices, San Jose CA) assisted with SoftMax 7.0.3. PRO. 21 software. […] [table]

[2] = system: type III collagen output by normal human neonatal dermal fibroblasts; assay: Type III collagen, direct ELISA on formalin-fixed cells; assay type: cell-based; conditions: for effect on type III collagen (in words): tested range
Protocol: as §3

[3] = system: type I collagen output by normal human neonatal dermal fibroblasts; assay: Type I collagen output, sandwich ELISA of conditioned medium; assay type: cell-based; conditions: for effect on type I collagen (in words): tested range
Protocol: as §3

[4] = system: normal human neonatal dermal fibroblasts; assay: Cell numbers, sulforhodamine B method; assay type: cell-based
Protocol: as §3

[5] = system: Clostridium collagenase IV (a generic metalloproteinase); assay: Metalloproteinase (collagenase) activity assay, Enzchek kit, quenched fluorescent gelatin; assay type: biochemical
Protocol: as §1
Metalloproteinase activity assay. The activity of the test materials towards collagenase proteolytic activity was examined by adding dilutions of test articles to the Enzchek kit reaction mixture (Molecular Probes/Invitrogen/ThermoFisher). Clostridium collagenase IV (a generic metalloproteinase) was used as the protease and quenched fluorescent gelatin was the substrate. Phenanthroline, a potent collagenase inhibitor was used as positive control at 1000 μM. The kinetics of the release of the digested, fluorescent gelatin were measured at excitation/emission wavelengths of 485/530 nm with the SpectraMax i3x microplate reader. Fluorescence readings were adjusted by subtracting the values in wells containing no collagenase and were expressed in arbitrary fluorescence units and as % of water-treated controls.
as §2

T1 sequence (P00772 27-266): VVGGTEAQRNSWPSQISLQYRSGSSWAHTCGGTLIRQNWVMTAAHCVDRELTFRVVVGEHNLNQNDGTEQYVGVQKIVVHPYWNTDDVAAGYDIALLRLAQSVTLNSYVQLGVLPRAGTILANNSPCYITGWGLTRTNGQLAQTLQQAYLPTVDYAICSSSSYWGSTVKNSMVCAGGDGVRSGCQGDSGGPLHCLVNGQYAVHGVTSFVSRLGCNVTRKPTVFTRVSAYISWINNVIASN

## COC(=O)CCC(=O)N[C@@H](C)C(=O)N[C@@H](C)C(=O)N1CCC[C@H]1C(=O)N[C@H](C(=O)CCl)C(C)C [El III] (HELM PEPTIDE1{[COC(=O)CCC(=O)[*:2]].A.A.P.V.[ClC[*:1]]}$$$$V2.0)
elastase; 1 ug/mL, t = 20 min
  Elastase activity (% Control): 9*** % Control
elastase; tested range
  suppressive effect on elastase activity (in words): nearly complete inhibitory activity

## O=C1O[C@H]([C@@H](O)CO)C([O-])=C1OP(=O)([O-])[O-].O=C1O[C@H]([C@@H](O)CO)C([O-])=C1OP(=O)([O-])[O-].[Mg+2].[Mg+2].[Mg+2] [MAP, magnesium ascorbyl phosphate]
[1]; 50 ug/mL
  Type IV collagen (% Control): 694 % Control
[1]; 100 ug/mL
  Type IV collagen (% Control): 703 % Control
[1]
  effect on type IV collagen (in words): strong stimulatory response
[2]; 50 ug/mL
  Type III collagen (% Control): 1977 % Control
[2]; 100 ug/mL
  Type III collagen (% Control): 1874 % Control
[2]
  effect on type III collagen (in words): strong stimulatory response
[3]; 50 ug/mL
  Type I collagen (% Control): 148 % Control
[3]; 100 ug/mL
  Type I collagen (% Control): 166 % Control
[3]
  effect on type I collagen (in words): strong stimulatory response
[4]; 50 ug/mL
  Cell Numbers (% Control): 130 % Control
[4]; 100 ug/mL
  Cell Numbers (% Control): 139 % Control

## c1cnc2c(c1)ccc1cccnc12 [Phenanthroline]
[5]; positive control at 1000 μM, t = 20 min
  MP activity (% CTR): 0* % CTR
[5]; tested range
  inhibitory effect on collagenase (MP) / generic metalloproteinase activity (in words): total inhibitory activity

## NC(=O)c1cccnc1 [niacinamide]
[1]; 80 ug/mL
  Type IV collagen (% Control): 88 % Control
[1]; 250 ug/mL
  Type IV collagen (% Control): 86 % Control
[1]; 400 ug/mL
  Type IV collagen (% Control): 104 % Control
[1]
  effect on type IV collagen (in words): no effect
[2]; 80 ug/mL
  Type III collagen (% Control): 106 % Control
[2]; 250 ug/mL
  Type III collagen (% Control): 106 % Control
[2]; 400 ug/mL
  Type III collagen (% Control): 111 % Control
[2]
  effect on type III collagen (in words): no effect
[3]; 80 ug/mL
  Type I collagen (% Control): 94 % Control
[3]; 250 ug/mL
  Type I collagen (% Control): 130 % Control
[3]; 400 ug/mL
  Type I collagen (% Control): 130 % Control
[3]; concentration not given
  type I collagen increase / upregulation (description summary): up to 130%
[3]
  effect on type I collagen (in words): upregulated type I collagen at the two highest tested concentrations
[4]; 80 ug/mL
  Cell Numbers (% Control): 99 % Control
[4]; 250 ug/mL
  Cell Numbers (% Control): 99 % Control
[4]; 400 ug/mL
  Cell Numbers (% Control): 96 % Control
